PubChem BioAssay (NCI)
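Tested at 5 concentrations; 48 h exposure; 96-well plates; endpoints linearly interpolated, else capped at highest concentration. The concentration for 50% growth inhibition is given as GI50. TGI is the concentration that stops growth completely.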

Experiments:
Experiment in all cases: DTP human tumour cell line panel, 48 h; in the data active means GI50 below about 0.43 µM; inactive means the rest
MOLT-4 leukemia = system: MOLT-4 leukemia
SN12C renal = system: SN12C renal
UO-31 renal = system: UO-31 renal
PC-3 prostate = system: PC-3 prostate
NCI-H23 lung = system: NCI-H23 lung
RPMI-8226 leukemia = system: RPMI-8226 leukemia
786-0 renal = system: 786-0 renal
COLO 205 colon = system: COLO 205 colon
TK-10 renal = system: TK-10 renal
DU-145 prostate = system: DU-145 prostate
HOP-92 NSCLC = system: HOP-92 NSCLC
OVCAR-8 ovarian = system: OVCAR-8 ovarian
HS 578T breast = system: HS 578T breast
CAKI-1 renal = system: CAKI-1 renal
SK-MEL-5 melanoma = system: SK-MEL-5 melanoma
SK-MEL-2 melanoma = system: SK-MEL-2 melanoma
SF-295 CNS = system: SF-295 CNS
A549 NSCLC = system: A549 NSCLC
RXF 393 renal = system: RXF 393 renal
BT-549 breast = system: BT-549 breast
SF-268 CNS = system: SF-268 CNS
NCI-H522 lung = system: NCI-H522 lung
KM12 colon = system: KM12 colon
SK-OV-3 ovarian = system: SK-OV-3 ovarian
NCI/ADR-RES ovarian = system: NCI/ADR-RES ovarian
A498 renal = system: A498 renal
T-47D breast = system: T-47D breast
MCF7 breast = system: MCF7 breast
SK-MEL-28 melanoma = system: SK-MEL-28 melanoma
ACHN renal = system: ACHN renal
OVCAR-3 ovarian = system: OVCAR-3 ovarian
MDA-MB-231 breast = system: MDA-MB-231 breast
IGROV1 ovarian = system: IGROV1 ovarian
NCI-H226 lung = system: NCI-H226 lung
OVCAR-5 ovarian = system: OVCAR-5 ovarian
SR leukemia = system: SR leukemia
CCRF-CEM leukemia = system: CCRF-CEM leukemia
SW-620 colon = system: SW-620 colon
MALME-3M melanoma = system: MALME-3M melanoma
HT29 colon = system: HT29 colon
UACC-62 melanoma = system: UACC-62 melanoma
K-562 leukemia = system: K-562 leukemia
U251 CNS = system: U251 CNS
HL-60(TB) leukemia = system: HL-60(TB) leukemia
HOP-62 NSCLC = system: HOP-62 NSCLC
HCT-15 colon = system: HCT-15 colon
SNB-19 CNS = system: SNB-19 CNS
UACC-257 melanoma = system: UACC-257 melanoma
NCI-H460 lung = system: NCI-H460 lung
HCT-116 colon = system: HCT-116 colon
SF-539 CNS = system: SF-539 CNS
OVCAR-4 ovarian = system: OVCAR-4 ovarian
SNB-75 CNS = system: SNB-75 CNS
HCC-2998 colon = system: HCC-2998 colon
EKVX NSCLC = system: EKVX NSCLC
LOX IMVI melanoma = system: LOX IMVI melanoma
MDA-MB-435 = system: MDA-MB-435
M14 melanoma = system: M14 melanoma

COc1cc(/C=C2\C(=O)Nc3ccc(N(C)C)cc32)cc(OC)c1OC
4.29 µM: TGI (OVCAR-3 ovarian)
5.8 µM: TGI (HL-60(TB) leukemia)
4.14 µM: TGI (RPMI-8226 leukemia)
> 87.4 µM: TGI (UO-31 renal)
18.6 µM: TGI (LOX IMVI melanoma)
40.6 µM: TGI (TK-10 renal)
30.4 µM: TGI (SK-OV-3 ovarian)
1.28 µM: TGI (RXF 393 renal)
> 100 µM: TGI (PC-3 prostate) | TGI (NCI-H23 lung) | TGI (HS 578T breast) | TGI (SF-295 CNS) | TGI (A498 renal) | TGI (MCF7 breast) | TGI (SK-MEL-28 melanoma) | TGI (NCI-H226 lung) | TGI (SW-620 colon) | TGI (HT29 colon) | TGI (UACC-62 melanoma) | TGI (SNB-19 CNS) | TGI (UACC-257 melanoma) | TGI (OVCAR-4 ovarian) | TGI (EKVX NSCLC)
8.31 µM: TGI (SK-MEL-2 melanoma)
5.75 µM: TGI (NCI-H522 lung)
14.5 µM: TGI (BT-549 breast)
14.6 µM: TGI (U251 CNS)
active: GI50 (RXF 393 renal) 0.24 µM | GI50 (SR leukemia) 0.34 µM
24.6 µM: TGI (SK-MEL-5 melanoma)
13.2 µM: TGI (KM12 colon)
> 30.9 µM: TGI (MOLT-4 leukemia)
33.3 µM: TGI (786-0 renal)
> 31.3 µM: TGI (T-47D breast)
36.3 µM: TGI (HOP-92 NSCLC)
33.1 µM: TGI (SF-268 CNS)
6.33 µM: TGI (SNB-75 CNS)
4.73 µM: TGI (COLO 205 colon)
inactive: GI50 (MOLT-4 leukemia) 2.87 µM | GI50 (SN12C renal) 4.26 µM | GI50 (UO-31 renal) 3.17 µM | GI50 (PC-3 prostate) 1.73 µM | GI50 (NCI-H23 lung) 3.07 µM | GI50 (RPMI-8226 leukemia) 1.11 µM | GI50 (786-0 renal) 4.3 µM | GI50 (COLO 205 colon) 1.89 µM | GI50 (TK-10 renal) 6.42 µM | GI50 (DU-145 prostate) 3.08 µM | GI50 (HOP-92 NSCLC) 3.17 µM | GI50 (OVCAR-8 ovarian) 4.46 µM | GI50 (HS 578T breast) 3.89 µM | GI50 (CAKI-1 renal) 5.78 µM | GI50 (SK-MEL-5 melanoma) 2.75 µM | GI50 (SK-MEL-2 melanoma) 2.77 µM | GI50 (SF-295 CNS) 3.16 µM | GI50 (A549 NSCLC) 3.86 µM | GI50 (BT-549 breast) 2.49 µM | GI50 (SF-268 CNS) 3.92 µM | GI50 (NCI-H522 lung) 1.47 µM | GI50 (KM12 colon) 1.69 µM | GI50 (SK-OV-3 ovarian) 3.55 µM | GI50 (NCI/ADR-RES ovarian) 1.93 µM | GI50 (A498 renal) 4.67 µM | GI50 (T-47D breast) 2.49 µM | GI50 (MCF7 breast) 1.51 µM | GI50 (SK-MEL-28 melanoma) 5.87 µM | GI50 (ACHN renal) 4.72 µM | GI50 (OVCAR-3 ovarian) 1.41 µM | GI50 (MDA-MB-231 breast) 4.26 µM | GI50 (IGROV1 ovarian) 1.5 µM | GI50 (NCI-H226 lung) 14.2 µM | GI50 (OVCAR-5 ovarian) 5.86 µM | GI50 (CCRF-CEM leukemia) 2.28 µM | GI50 (SW-620 colon) 2.7 µM | GI50 (MALME-3M melanoma) 3.23 µM | GI50 (HT29 colon) 2.11 µM | GI50 (UACC-62 melanoma) 2.5 µM | GI50 (K-562 leukemia) 0.58 µM | GI50 (U251 CNS) 3.1 µM | GI50 (HL-60(TB) leukemia) 1.35 µM | GI50 (HOP-62 NSCLC) 8.48 µM | GI50 (HCT-15 colon) 1.23 µM | GI50 (SNB-19 CNS) 3.67 µM | GI50 (UACC-257 melanoma) 6.73 µM | GI50 (NCI-H460 lung) 2.98 µM | GI50 (HCT-116 colon) 2.94 µM | GI50 (SF-539 CNS) 2.44 µM | GI50 (OVCAR-4 ovarian) 3.7 µM | GI50 (SNB-75 CNS) 1.74 µM | GI50 (HCC-2998 colon) 8.46 µM | GI50 (EKVX NSCLC) 5.25 µM | GI50 (LOX IMVI melanoma) 3.2 µM
> 30.2 µM: TGI (MALME-3M melanoma)
> 80.5 µM: TGI (CAKI-1 renal)
> 25.6 µM: TGI (K-562 leukemia)
2.4 µM: TGI (SR leukemia)
35.9 µM: TGI (A549 NSCLC)
> 43.9 µM: TGI (HCT-116 colon)
5.43 µM: TGI (IGROV1 ovarian)
7.88 µM: TGI (SF-539 CNS)
98.4 µM: TGI (ACHN renal)
> 79.4 µM: TGI (OVCAR-8 ovarian)
> 63.8 µM: TGI (MDA-MB-231 breast)
10.1 µM: TGI (CCRF-CEM leukemia)
6.27 µM: TGI (NCI/ADR-RES ovarian)
49.8 µM: TGI (HCT-15 colon)
50.2 µM: TGI (HOP-62 NSCLC)
> 29.3 µM: TGI (DU-145 prostate)
> 80.2 µM: TGI (OVCAR-5 ovarian)
> 29.1 µM: TGI (NCI-H460 lung)
46.4 µM: TGI (HCC-2998 colon)
42.3 µM: TGI (SN12C renal)

O=C1NC(=S)S/C1=C(/C=C(\CC(=O)c1ccccc1)c1ccc(Cl)cc1)c1ccccc1
34.3 µM: TGI (SK-MEL-5 melanoma)
82.1 µM: TGI (RXF 393 renal)
63.4 µM: TGI (M14 melanoma)
63.3 µM: TGI (SR leukemia)
45.7 µM: TGI (NCI-H460 lung)
48.8 µM: TGI (NCI-H23 lung)
39.4 µM: TGI (HCT-15 colon)
61.3 µM: TGI (ACHN renal)
83.3 µM: TGI (PC-3 prostate)
56.3 µM: TGI (SN12C renal)
inactive: GI50 (MOLT-4 leukemia) 19.5 µM | GI50 (SN12C renal) 25.3 µM | GI50 (UO-31 renal) 48.6 µM | GI50 (PC-3 prostate) 25.8 µM | GI50 (NCI-H23 lung) 21.8 µM | GI50 (786-0 renal) 46.9 µM | GI50 (COLO 205 colon) 32.5 µM | GI50 (TK-10 renal) 29.6 µM | GI50 (DU-145 prostate) 43.1 µM | GI50 (OVCAR-8 ovarian) 26.5 µM | GI50 (HS 578T breast) 42.3 µM | GI50 (CAKI-1 renal) 33.7 µM | GI50 (SK-MEL-5 melanoma) 19.1 µM | GI50 (SF-295 CNS) 23.4 µM | GI50 (A549 NSCLC) 20.2 µM | GI50 (RXF 393 renal) 23.4 µM | GI50 (BT-549 breast) 33 µM | GI50 (SF-268 CNS) 27.1 µM | GI50 (NCI-H522 lung) 17.9 µM | GI50 (KM12 colon) 28.2 µM | GI50 (SK-OV-3 ovarian) > 100 µM | GI50 (NCI/ADR-RES ovarian) 28.4 µM | GI50 (A498 renal) 38 µM | GI50 (T-47D breast) 35.6 µM | GI50 (MCF7 breast) 19.8 µM | GI50 (MDA-MB-435) 37.2 µM | GI50 (SK-MEL-28 melanoma) 61.9 µM | GI50 (ACHN renal) 25.5 µM | GI50 (OVCAR-3 ovarian) 24.2 µM | GI50 (MDA-MB-231 breast) 25 µM | GI50 (IGROV1 ovarian) 41.6 µM | GI50 (NCI-H226 lung) 28.5 µM | GI50 (OVCAR-5 ovarian) 65.4 µM | GI50 (SR leukemia) 27 µM | GI50 (CCRF-CEM leukemia) 24.7 µM | GI50 (SW-620 colon) 42.9 µM | GI50 (MALME-3M melanoma) 39.9 µM | GI50 (UACC-62 melanoma) 21.6 µM | GI50 (K-562 leukemia) 15.3 µM | GI50 (U251 CNS) 30.9 µM | GI50 (HL-60(TB) leukemia) 21.7 µM | GI50 (HOP-62 NSCLC) 38.5 µM | GI50 (HCT-15 colon) 15.8 µM | GI50 (M14 melanoma) 24.7 µM | GI50 (SNB-19 CNS) 95.1 µM | GI50 (UACC-257 melanoma) 21.9 µM | GI50 (NCI-H460 lung) 19.9 µM | GI50 (HCT-116 colon) 31.8 µM | GI50 (SF-539 CNS) 39 µM | GI50 (OVCAR-4 ovarian) 44.9 µM | GI50 (HCC-2998 colon) 18.2 µM | GI50 (EKVX NSCLC) 33.6 µM | GI50 (LOX IMVI melanoma) 37.6 µM
51.6 µM: TGI (MOLT-4 leukemia)
90.4 µM: TGI (NCI-H226 lung)
> 100 µM: TGI (UO-31 renal) | TGI (786-0 renal) | TGI (COLO 205 colon) | TGI (TK-10 renal) | TGI (DU-145 prostate) | TGI (OVCAR-8 ovarian) | TGI (CAKI-1 renal) | TGI (A549 NSCLC) | TGI (BT-549 breast) | TGI (KM12 colon) | TGI (SK-OV-3 ovarian) | TGI (T-47D breast) | TGI (MDA-MB-435) | TGI (SK-MEL-28 melanoma) | TGI (OVCAR-3 ovarian) | TGI (IGROV1 ovarian) | TGI (OVCAR-5 ovarian) | TGI (SW-620 colon) | TGI (MALME-3M melanoma) | TGI (K-562 leukemia) | TGI (U251 CNS) | TGI (HOP-62 NSCLC) | TGI (SNB-19 CNS) | TGI (HCT-116 colon) | TGI (SF-539 CNS) | TGI (OVCAR-4 ovarian) | TGI (EKVX NSCLC) | TGI (LOX IMVI melanoma)
44.9 µM: TGI (NCI-H522 lung)
48.1 µM: TGI (MCF7 breast)
76 µM: TGI (A498 renal)
47.4 µM: TGI (HCC-2998 colon)
96 µM: TGI (SF-268 CNS)
61.8 µM: TGI (UACC-257 melanoma)
55.2 µM: TGI (HL-60(TB) leukemia)
43.7 µM: TGI (UACC-62 melanoma)
72.6 µM: TGI (MDA-MB-231 breast)
85.4 µM: TGI (HS 578T breast)
64.7 µM: TGI (SF-295 CNS)
79.9 µM: TGI (NCI/ADR-RES ovarian)
73.7 µM: TGI (CCRF-CEM leukemia)
